Results from patent US9821000B2, “Compounds, compositions and corresponding uses for preventing and/or treating of dyslipidemia” (CENTRE NATIONAL DE LA RECHERCHE SCIENTIFIQUE (CNRS), priority 2013, dated 2017).

What was measured:
Assay type in all cases: cell-based, Saccharomyces cerevisiae
[1] = system: hem1Δ yeasts; assay: Restoration of growth of lipo-intoxicated hem1Δ yeasts (drop test on agar); conditions: SFA accumulation conditions; 5 μl drops on agar; after three days
Protocol: FIG. 3B—The hem1Δ yeasts were cultivated in conditions of SFA accumulation as indicated. 5 μl drops of OAG, LPA and oleic acid in the concentrations indicated were then deposited on the surface of the agar medium. The restoration of growth of the hem1Δ yeasts is observed in the formation of colonies after three days.
The strain carrying the hem1Δ strain is cultivated, under aerobic conditions, under stirring and at 28° C., in a YPG^A liquid medium (YPG (yeast extract 1% (m/v), peptone 1% (m/v) and glucose 2% (m/v)) supplemented with δ-aminolevulinic acid (ALA) at 80 μg/mL). Lipotoxicity by saturated fatty acids (SFA) is prompted by depletion of unsaturated fatty acids (UFA)—the synthesis of which is dependent on the presence of haem (prosthetic grouping of the enzyme Ole1p especially)—by transfer into YPG^+ medium (YPG supplemented with ergosterol at 80 μg/mL to compensate for the depletion in sterol obtained under these conditions). The lipotoxicity can be induced in a solid medium YPG^++agar 2% (m/v) in transferring 3500 cells (hem1Δ coming from a pre-culture in YPG^A)/cm^2 or *alternatively in a liquid medium in inoculating 2·10^6 cells/mL of YPG^+. Classically, the effects of lipotoxicity on SFA are analyzed 7 h after the transfer into YPG^+ medium. The capacity of a compound to counter the deleterious effects of lipotoxicity with SFA is for its part evaluated successively with the addition of this compound on (or in) the YPG^+ transfer medium after seeding with cells.
1) Screening of compounds: Following the induction of lipotoxicity with SFA (for hem1Δ cultivated in a solid medium), 5 μL drops of solutions of different compounds at 10 mM in dimethylsulfoxide (DMSO) or in ethanol (EtOH) are deposited on the surface of agar. The capacity of a compound to counter the lipo-induced stoppage of cell growth is estimated by the appearance of a halo of hem1Δ colonies at the position of the deposit of said compound after three days of culture at 28° C. (cf. Deguil et al., 2011).

[2] = system: hem1Δ yeasts; assay: Phospholipid fatty acid content by mass spectrometry in lipo-intoxicated hem1Δ yeasts
Protocol: The hem1Δ yeasts were cultivated in standard conditions (control) or in conditions of SFA accumulation without (Ø) or with the addition of 100 μM of oleic acid, LPA or OAG as indicated.
FIG. 6A—After 7 h of incubation, the phospholipids (PL) were extracted and the different species of phosphatidylcholine (PC), which constitute the predominantly present PL were analyzed by mass spectrometry in positive mode, according to Pineau et al. (2008).
FIG. 6B—All the species of PL detectable in these conditions of mass spectrometry were analyzed to globally quantify the content in SFA forms.
The hem1Δ strain is cultivated in a YPG^A, YPG^+ or YPG^+ liquid medium+200 μM of compound to be tested in aerobic conditions, under stirring and at 28° C. for 7 h, starting from an initial cell concentration of 2·10^6 cells/mL. At the end of the culture, 10^8 cells are collected in order to carry out the extraction of the total lipids. After the cells have been put in suspension in 1 mL of distilled water at 4° C., 500 μL of glass beads (Ø 0.6 mm) are added and the whole mixture then undergoes three sequences of 20 seconds at 5000 rpm in a stirrer (the tubes are kept on ice between each of the three sequences). The cellular lysate then obtained, complemented with water for rinsing the beads (1 mL), is then transferred into a 40 mL glass tube (Corex™) and then the lipids are extracted by using a methanol:chloroform ratio of 2:1 (v/v). Initially, 6 mL of methanol are added and the entire mixture is vortexed for 30 seconds and then incubated for 15 minutes at 65° C. Once the mixture has been cooled to ambient temperature, […] of chloroform is added and then the entire mixture is again vortexed for 30 seconds before allowing the extraction to take place for 16 h. Subsequently, the sample is centrifuged for 12 minutes at 10000 g and then the supernatant is transferred into a new Corex™ tube. After the addition of 2 mL of chloroform and then 4 mL of distilled water, the entire mixture is vortexed for 30 seconds and then centrifuged for 8 minutes at 3000 g. After elimination of the resultant upper phase, the lower organic phase is collected in a hemolysis tube made of glass. Finally, the solvent is evaporated under a nitrogen stream at 80° C. to obtain total cell lipid samples.
The samples of total cell lipids are put back into suspension in 1 mL of dichloromethane in being vortexed for 30 seconds. The entire mixture is deposited on a silica column (BOND ELUT-SI, 100 mg 1 mL) preconditioned with 3 mL of methanol and then 2 mL of dichloromethane successively. The fraction retained by the column is then washed with 2 mL of dichloromethane and then 2 mL of acetone successively. Finally, 2 mL of a mixture of chloroform/methanol/water 50:45:5 (v/v/v) are deposited on the column and the phospholipids thus eluted are collected in a glass hemolysis tube. The solvent is evaporated under nitrogen at 80° C. to obtain the samples of cellular phospholipids.
Once put back into suspension in 100 μL of mixture Mix^− (isopropanol/acetonitrile/water 2:1:1 (v/v/v)+triethylamine 1% (v/v)) or mixture Mix^+ (isopropanol/acetonitrile/water 2:1:1 (v/v/v)+formic acid 1% (v/v)), the samples are analyzed by mass spectrometry (Electro Spray Ionization-Mass Spectrometry (ESI-MS)) in negative or positive mode respectively and the results obtained serve to analyze the fatty acid content of the different species of phospholipids.

[3] = system: QM strain; assay: Toxicity test on QM strain (growth inhibition haloes); conditions: after three days
Protocol: 5 μl drops of OAG, LPA or oleic acid were deposited, from stock solutions in the concentrations indicated, on the surface of an agar medium on which the QM strain had been preliminarily spread. […] These haloes are on the contrary not observed in the presence of LPA and OAG.
At the same time, wild strains (WT) and QM are cultivated in aerobic conditions under stirring and at 28° C., in a YPG liquid medium before seeding 3500 cells per cm^2 of YPG+agar 2% (m/v). Following this transfer to solid medium, 1 μL drops of solutions of different compounds at 1, 10 and 100 mM in DMSO or EtOH are deposited on the surface of the agar. Separately, deposits of DMSO and EtOH are also made in order to assess the intrinsic toxicity of these two solvents. After three days of culture of 28° C., the toxicity of the tested compounds is evaluated by comparing the diameters of the growth inhibition haloes obtained for the deposits of undissolved solvents with those of the deposits of different concentrations of compounds tested.

## CCCCCCCC/C=C\CCCCCCCC(=O)O [oleic acid, reference compound]
[1]
  restoration of growth of lipo-intoxicated hem1Δ yeasts (formation of colonies): restore the growth
[2]; hem1Δ yeast model
  plasticity of membranes previously lipo-intoxicated by SFAs: restores the plasticity of the membranes
[2]; hem1Δ, SFA accumulation, 100 μM compound, 7 h
  production of di-unsaturated phospholipids (level of PC species 36:2): increase of the level of this species
[3]; QM strain on agar medium
  toxicity for cells that do not synthesize triglycerides: toxicity
[3]; QM strain, 5 μl drops on agar
  haloes of growth inhibition (absence of colonies): haloes of growth inhibition (absence of colonies) can be observed
